Strand notation (5' to 3'): a small letter for the sugar, then the base; units joined by * are phosphorothioate-linked, units joined directly phosphodiester-linked; [ ] holds rarer units or linkages, { } end groups; capitals alone tell only the bases. e = 2'-O-(2-methoxyethyl) (MOE); k = constrained ethyl (cEt); [5mC] = 5-methylcytosine; d = 2'-deoxy (DNA); m = 2'-O-methyl
System: Yap1 mRNA
Experiment: Antisense inhibition of human Yap1 in SNU-449 cells by modified oligonucleotides, single dose (Example 5, RTS36584)
Format: cell-based
Details: Table 39; SNU-449 cells, 10,000 cells per well, free uptake, 2,000 nM oligonucleotide, approx. 48 hours; RTS36584; normalized to RIBOGREEN; Yap1 mRNA relative to untreated control
Experimental: Modified oligonucleotides with additional chemistry modifications were designed to target a Yap1 nucleic acid and were tested for their effect on Yap1 mRNA level in SNU-449 cells. The modified oligonucleotides were tested in a series of experiments that had similar culture conditions. Cultured SNU-449 cells at a density of 10,000 cells per well were treated using free uptake with 2,000 nM of modified oligonucleotide. After a treatment period of approximately 48 hours, RNA was isolated from the cells and Yap1 mRNA levels were measured by quantitative real-time RTPCR. Human primer probe set RTS36584 was used to measure mRNA levels. Yap1 mRNA levels were normalized to total RNA content, as measured by RIBOGREEN®. Results are presented in the tables below as percent control of the amount of Yap1 mRNA relative to untreated control cells (% UTC). The modified oligonucleotides with percent control values marked with an asterisk (*) target the amplicon region of the primer probe set. Additional assays may be used to measure the potency and efficacy of the modified oligonucleotides targeting the amplicon region.
Several different chemistry modifications were tested, which are specified in the Chemistry Notation column of the tables below, wherein the notation “d” refers to a 2′-deoxyribose sugar, the notation “s” refers to a phosphorothioate (P═S) internucleoside linkage, the notation “k” refers to a cEt modified sugar, the notation “y” refers to a 2′-O-methyl ribose sugar, the notation “e” refers to a MOE modified sugar, and the notation “^mC” refers to a 5-methylcytosine.
“Start site” indicates the 5′-most nucleoside to which the gapmer is targeted in the human gene sequence. “Stop site” indicates the 3′-most nucleoside to which the gapmer is targeted human gene sequence. […] Activity of the modified oligonucleotide may be defined in a different experiment.

In order of rising “YAP1 (% UTC)” value:
1. 1198412 (kT*dT*dA*dG*dG*dA*dT*dG*d[5mC]*dA*dT*kG*eG*kT*eT*kT; antisense) [Compound 1198412]  17 % UTC
2. 1095398 (antisense k[5mC]*dT*dG*dA*dG*dG*dT*dA*dT*dA*dA*k[5mC]*eT*kG*eG*kG) [Compound 1095398]  38 % UTC
3. 1198373 (kA*dA*dA*dT*dT*dG*dT*d[5mC]*dT*d[5mC]*dA*kT*eG*k[5mC]*e[5mC]*kT; antisense) [Compound 1198373]  40 % UTC
4. 1198387 (kT*d[5mC]*dT*dA*dT*dA*dT*dT*dA*dG*dA*kG*eT*kA*eT*kG; antisense) [Compound 1198387]  84 % UTC

Same assay, conditions: Table 40 (separate experiment); SNU-449 cells, 10,000 cells per well, free uptake, 2,000 nM oligonucleotide, approx. 48 hours; RTS36584; normalized to RIBOGREEN; Yap1 mRNA relative to untreated control

In order of rising “YAP1 (% UTC)” value:
1. 1198754 (kG*e[5mC]*kT*dT*dT*dG*dG*dA*dA*dG*dA*dT*e[5mC]*eT*kG*kA; antisense) [Compound 1198754]  23 % UTC
2. 1198795 (antisense kT*eA*kA*dG*dG*dT*dT*dT*d[5mC]*d[5mC]*d[5mC]*dA*eG*eA*kT*kT) [Compound 1198795]  43 % UTC
3. 1198721 (kA*eT*kG*dG*dA*dA*dA*dT*dT*dG*dT*d[5mC]*eT*e[5mC]*kA*kT; antisense) [Compound 1198721]  48 % UTC
4. 1198753 (k[5mC]*eT*kT*dT*dG*dG*dA*dA*dG*dA*dT*d[5mC]*eT*eG*kA*kA; antisense) [Compound 1198753]  58 % UTC
5. 1198782 (antisense kT*eG*kT*dA*dA*dT*dA*dT*dT*dG*d[5mC]*dA*eA*eT*k[5mC]*kT) [Compound 1198782]  61 % UTC
6. 1198767 (kA*eT*kT*d[5mC]*dA*dG*dA*dT*dT*dT*dA*dG*eG*eA*kT*kG; antisense) [Compound 1198767]  65 % UTC

Same assay, conditions: Table 41; SNU-449 cells, 10,000 cells per well, free uptake, 2,000 nM modified oligonucleotide, approximately 48 hours; RTS36584; normalized to RIBOGREEN; Yap1 mRNA relative to untreated control cells

In order of falling “YAP1 (% UTC)” value:
1. 1198661 (antisense kT*kT*dG*dG*dA*dA*dG*dA*dT*d[5mC]*dT*dG*kA*eA*kA*e[5mC]) [Compound 1198661]  111 % UTC
2. 1198653 (k[5mC]*kT*dT*dT*dT*dA*d[5mC]*dA*dT*dT*dA*dG*kG*eA*kA*e[5mC]; antisense) [Compound 1198653]  64 % UTC
3. 1198691 (antisense kG*kT*dA*dA*dT*dA*dT*dT*dG*d[5mC]*dA*dA*kT*e[5mC]*kT*eG) [Compound 1198691]  38 % UTC
4. 1198735 (kG*eA*kG*dG*dT*dA*dT*dA*dA*d[5mC]*dT*dG*eG*eG*k[5mC]*kA; antisense) [Compound 1198735]  34 % UTC
5. 1198790 (antisense kT*eA*kA*dA*dG*dT*dG*dT*dA*dT*dG*dT*e[5mC]*eA*kG*kA) [Compound 1198790]  27 % UTC
6. 1198786 (antisense kT*eG*kT*dA*dT*dG*dT*d[5mC]*dA*dG*dA*dA*eG*eA*kG*kT) [Compound 1198786]  16 % UTC
7. 1198641 (kA*kT*dT*dA*dG*dA*dG*dT*dA*dT*dG*dT*kG*eG*k[5mC]*eA; antisense) [Compound 1198641]  15 % UTC

Same assay, conditions: Table 42 (separate experiment); SNU-449 cells, 10,000 cells per well, free uptake, 2,000 nM modified oligonucleotide, approximately 48 hours; RTS36584; normalized to RIBOGREEN; Yap1 mRNA relative to untreated control cells

In order of falling “YAP1 (% UTC)” value:
1. 1198238 (kA*kT*dA*dG*dT*dG*d[5mC]*dT*dT*dT*dG*eG*eA*eA*kG*kA) [Compound 1198238]  88 % UTC
2. 1198710 (kA*k[5mC]*dT*dA*dA*dG*dT*dA*dA*dG*dG*dT*kT*eT*k[5mC]*e[5mC]; antisense) [Compound 1198710]  51 % UTC
3. 1198233 (k[5mC]*kT*dT*dT*dG*dG*dA*dA*dG*dA*dT*e[5mC]*eT*eG*kA*kA) [Compound 1198233]  49 % UTC
4. 1198198 (kT*kG*dT*d[5mC]*dT*d[5mC]*dA*dT*dG*d[5mC]*d[5mC]*eT*eT*eA*kT*kA; antisense) [Compound 1198198]  29 % UTC

Same assay, conditions: Table 43 experiment; SNU-449 cells, 10,000 cells per well, free uptake, 2,000 nM, approximately 48 hours; RTS36584; Yap1 mRNA normalized to RIBOGREEN, relative to untreated control cells

In order of rising “YAP1 (% UTC)” value:
1. 1198252 (k[5mC]*kT*d[5mC]*dT*dT*dA*dT*dA*dT*dG*dG*eT*eT*eT*kT*kG; antisense) [Compound 1198252]  26 % UTC
2. 1198246 (kT*k[5mC]*dA*dG*dA*dT*dT*dT*dA*dG*dG*eA*eT*eG*k[5mC]*kA; antisense) [Compound 1198246]  30 % UTC
3. 1198280 (kA*k[5mC]*dT*dA*dA*dG*dT*dA*dA*dG*dG*eT*eT*eT*k[5mC]*k[5mC]; antisense) [Compound 1198280]  40 % UTC

Same assay, conditions: Table 44 experiment; SNU-449 cells, 10,000 cells per well, free uptake, 2,000 nM, approximately 48 hours; RTS36584; Yap1 mRNA normalized to RIBOGREEN, relative to untreated control cells

In order of rising “YAP1 (% UTC)” value:
1. 1198495 (antisense kA*kG*dT*dG*d[5mC]*dT*dT*dT*dG*dG*dA*eA*kG*eA*kT*e[5mC]) [Compound 1198495]  22 % UTC
2. 1198522 (kT*kA*dT*dG*dT*dA*dA*dT*dA*dT*dT*eG*k[5mC]*eA*kA*eT; antisense) [Compound 1198522]  37 % UTC
3. 1198523 (kT*kT*dT*dA*dT*dG*dT*dA*dA*dT*dA*eT*kT*eG*k[5mC]*eA; antisense) [Compound 1198523]  93 % UTC

Same assay, conditions: Table 45; Yap1 mRNA as percent of untreated control, SNU-449 cells, single dose

In order of falling “YAP1 (% UTC)” value:
1. 1198919 (A_{ks}G^{m}C_{ds}A_{ds}^{m}C_{ds}T_{ds}T_{ds}T_{ds}T_{ds}A_{ds}^{m}C_{ds}A_{ks}T_{ds}T_{ks}A_{ds}G_{k}; modified gapmer, phosphorothioate, as printed in the source, key not given here) [Compound 1198919]  60 % UTC
2. 1198970 (kT*kA*dA*dG*dT*dA*dA*dG*dG*dT*dT*kT*d[5mC]*k[5mC]*d[5mC]*kA; antisense) [Compound 1198970]  29 % UTC

Same assay, conditions: Table 46; Yap1 mRNA as percent of untreated control, SNU-449 cells, single dose

With “1198829 (k[5mC]*kT*dT*dT*dT*dA*d[5mC]*dA*dT*dT*dA*kG*eG*kA*eA*k[5mC]; antisense) [Compound 1198829]” the “YAP1 (% UT)” value was 36 % UT.

Same assay, conditions: Table 48; Yap1 mRNA level relative to untreated control; modified oligonucleotides targeting SEQ ID NO.: 1 and 2

In order of falling “YAP1 (% UT)” value:
1. 1197218 (antisense kT*kT*kT*dA*dA*dA*dG*dT*dG*dT*dA*dT*dG*kT*k[5mC]*kA) [Compound 1197218]  29 % UT
2. 1198347 (kG*kT*kA*dA*dT*dA*dT*dT*dG*d[5mC]*dA*dA*kT*e[5mC]*kT*eG; antisense) [Compound 1198347]  14 % UT

Same assay, conditions: Table 49; Yap1 mRNA level relative to untreated control; modified oligonucleotides targeting SEQ ID NO.: 1 and 2

For “1198360 (kA*kA*k[5mC]*dT*dT*dT*dA*dA*dA*dG*dT*dG*kT*eA*kT*eG; antisense) [Compound 1198360]”, the “YAP1 (% UT)” value was 74 % UT.

Same assay, conditions: Table 50; Yap1 mRNA remaining as percent of untreated control (UT), SNU-449 cells, single dose

In order of falling “YAP1 (% UT)” value:
1. 1198591 (antisense kA*kT*kT*d[5mC]*dA*dG*dA*dT*dT*dT*dA*dG*kG*kA*kT*eG) [Compound 1198591]  106 % UT
2. 1198564 (antisense kA*kA*k[5mC]*dA*d[5mC]*dT*dG*dA*dG*dG*dT*dA*kT*kA*kA*e[5mC]) [Compound 1198564]  44 % UT
3. 1198596 (antisense k[5mC]*kT*k[5mC]*dT*dT*dA*dT*dA*dT*dG*dG*dT*kT*kT*kT*eG) [Compound 1198596]  16 % UT

Same assay, conditions: Table 51; Yap1 mRNA remaining as percent of untreated control (UT), SNU-449 cells, single dose

In order of rising “YAP1 (% UT)” value:
1. 1197313 (kA*kG*kT*dG*mU*dA*dT*dG*dT*d[5mC]*dA*dG*dA*kA*kG*kA; antisense) [Compound 1197313]  8 % UT
2. 1197260 (kT*kT*kA*dT*mA*dT*dG*dG*dT*dT*dT*dT*dG*kT*kG*kT) [Compound 1197260]  65 % UT

Same assay, conditions: Table 52; Yap1 mRNA, modified oligonucleotides targeting SEQ ID NO: 1 and 2

In order of rising “YAP1 (% UT)” value:
1. 1200858 (kA*kA*kG*dT*dG*mU*dA*dT*dG*dT*d[5mC]*dA*dG*kA*kA*kG; antisense) [Compound 1200858]  10 % UT
2. 1200830 (kT*kT*kA*dG*dG*mA*dT*dG*d[5mC]*dA*dT*dG*dG*kT*kT*kT; antisense) [Compound 1200830]  50 % UT
3. 1200849 (kA*kA*kT*dA*dT*mU*dG*d[5mC]*dA*dA*dT*d[5mC]*dT*kG*kT*k[5mC]; antisense) [Compound 1200849]  53 % UT

Same assay, conditions: Yap1 mRNA, percent of untreated control; modified oligonucleotides targeting SEQ ID NO: 1 and 2; Table 47

With “1097037 (antisense kA*kG*kA*dT*dT*dT*dA*dG*dG*dA*dT*dG*d[5mC]*kA*kT*kG) [Compound 1097037]” the “YAP1 (% UT)” value was 38 % UT.

Reference: US11214803B2, “Modulators of YAP1 expression” (Ionis Pharmaceuticals, Inc., priority 2019, dated 2022)
